# Laboratory results published in ChEMBL document CHEMBL1201862, “PubChem BioAssay data set” (2004).
#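 Results reflect a 48-hour exposure of cells in 96-well plates to compound at five concentrations. The concentration for 50% growth inhibition is given as GI50.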 Calls of active or inactive are those of the source. Cut-off read from the data, not from the text of the source: active = GI50 up to about 1.1 µM and inactive = higher.
# What was measured:
# Test in all cases: NCI tumour cell line growth inhibition, 48 h
# NCI-H522 = test system: NCI-H522
# Hs-578T = test system: Hs-578T
# CAKI-1 = test system: CAKI-1
# LOX IMVI = test system: LOX IMVI
# RPMI-8226 = test system: RPMI-8226
# HCT-15 = test system: HCT-15
# T47D = test system: T47D
# SF-268 = test system: SF-268
# U-251 = test system: U-251
# HCT-116 = test system: HCT-116
# CCRF-CEM = test system: CCRF-CEM
# OVCAR-5 = test system: OVCAR-5
# A549 = test system: A549
# NCI-H226 = test system: NCI-H226
# IGROV-1 = test system: IGROV-1
# NCI-H460 = test system: NCI-H460
# SW-620 = test system: SW-620
# SR = test system: SR
# PC-3 = test system: PC-3
# MDA-MB-231 = test system: MDA-MB-231
Structure (SMILES),GI50 (NCI-H522),GI50 (Hs-578T),GI50 (CAKI-1),GI50 (LOX IMVI),GI50 (RPMI-8226),GI50 (HCT-15) [µM],GI50 (T47D),GI50 (SF-268),GI50 (U-251),GI50 (HCT-116),GI50 (CCRF-CEM),GI50 (OVCAR-5),GI50 (A549),GI50 (NCI-H226),GI50 (IGROV-1),GI50 (NCI-H460),GI50 (SW-620),GI50 (SR),GI50 (PC-3),GI50 (MDA-MB-231)
O=C(Nc1cccc(C(F)(F)F)c1)C(=O)C(C(=O)c1ccc2ccccc2c1)C1OC(=O)c2ccccc21 (centres undefined),8.26 µM (inactive),7.14 µM (inactive),12.4 µM (inactive),4.23 µM (inactive),3.68 µM (inactive),8.13,8.99 µM (inactive),5.05 µM (inactive),4.08 µM (inactive),6.82 µM (inactive),3.18 µM (inactive),14.3 µM (inactive),10.7 µM (inactive),2.89 µM (inactive),18.2 µM (inactive),5.61 µM (inactive),6.25 µM (inactive),3.24 µM (inactive),,
CC(C)(CN1CCCCC1)C(=O)CC(SCCS(=O)(=O)O)c1ccccc1 (centres undefined),3.11 µM (inactive),36.1 µM (inactive),15.5 µM (inactive),,23.2 µM (inactive),8.57,,10 µM (inactive),21.6 µM (inactive),5.9 µM (inactive),5.16 µM (inactive),11.6 µM (inactive),27.4 µM (inactive),27.7 µM (inactive),26.4 µM (inactive),11.9 µM (inactive),11.1 µM (inactive),0.466 µM (active),22.9 µM (inactive),13.7 µM (inactive)
COc1cc2c(c(OC)c1O)-c1ccc(SC)c(=O)cc1C(NC(C)=O)CC2 (centres undefined),< 0.01 µM (active),,0.285 µM (active),< 0.01 µM (active),< 0.0121 µM (active),1.06,,< 0.0107 µM (active),< 0.0146 µM (active),< 0.01 µM (active),< 0.01 µM (active),4.83 µM (inactive),0.04 µM (active),0.532 µM (active),0.0593 µM (active),0.0341 µM (active),< 0.01 µM (active),0.0112 µM (active),,
O=C(N/N=C/c1ccccc1O)c1ccccc1Nc1ccccc1C(=O)N/N=C/c1ccccc1O,0.277 µM (active),,0.617 µM (active),0.154 µM (active),,0.329,0.859 µM (active),0.255 µM (active),3.48 µM (inactive),0.198 µM (active),0.931 µM (active),> 100 µM (inactive),1.62 µM (inactive),0.403 µM (active),0.458 µM (active),0.371 µM (active),,0.566 µM (active),13.4 µM (inactive),99.3 µM (inactive)
CN1C(=O)N(C)C2(O)c3ccccc3C(=O)C12O (centres undefined),> 100 µM (inactive),,> 100 µM (inactive),> 100 µM (inactive),> 100 µM (inactive),> 100,,> 100 µM (inactive),> 100 µM (inactive),> 100 µM (inactive),> 100 µM (inactive),> 100 µM (inactive),> 100 µM (inactive),> 100 µM (inactive),> 100 µM (inactive),> 100 µM (inactive),> 100 µM (inactive),> 100 µM (inactive),,
NCCCNCCCNCCCN,54.3 µM (inactive),,> 100 µM (inactive),> 100 µM (inactive),16.4 µM (inactive),> 100,12.6 µM (inactive),3.48 µM (inactive),> 100 µM (inactive),> 100 µM (inactive),,> 100 µM (inactive),> 100 µM (inactive),> 100 µM (inactive),> 100 µM (inactive),,> 100 µM (inactive),18.8 µM (inactive),> 100 µM (inactive),> 100 µM (inactive)
OCCCNc1ccnc2cc(Cl)ccc12,> 100 µM (inactive),,> 100 µM (inactive),> 100 µM (inactive),> 100 µM (inactive),> 100,,> 100 µM (inactive),> 100 µM (inactive),57.9 µM (inactive),> 100 µM (inactive),> 100 µM (inactive),> 100 µM (inactive),61.9 µM (inactive),> 100 µM (inactive),> 100 µM (inactive),> 100 µM (inactive),> 100 µM (inactive),,
COC(=O)/C=C/c1cc(O)c2c(c1)[C@H](C(=O)OC)[C@@H](c1ccc(O)c(O)c1)O2,0.0706 µM (active),0.046 µM (active),0.544 µM (active),0.0757 µM (active),0.0618 µM (active),0.0451,,0.635 µM (active),0.0664 µM (active),0.0499 µM (active),0.0381 µM (active),35.7 µM (inactive),0.877 µM (active),2.48 µM (inactive),0.221 µM (active),2.56 µM (inactive),0.0428 µM (active),0.0316 µM (active),1.57 µM (inactive),
CC(C)c1cccc(C(C)C)c1/N=C(/N)C#N,38 µM (inactive),,> 100 µM (inactive),25.2 µM (inactive),34.4 µM (inactive),37.2,,> 100 µM (inactive),34 µM (inactive),> 44.6 µM (inactive),30.5 µM (inactive),> 100 µM (inactive),> 44.2 µM (inactive),> 100 µM (inactive),> 100 µM (inactive),> 44.9 µM (inactive),22.1 µM (inactive),46.2 µM (inactive),,
CN1CC[C@@]2(c3cccc(O)c3)CC(=O)/C(=C/c3ccc(Cl)c(Cl)c3)[C@H]1C2,,2.51 µM (inactive),,1.48 µM (inactive),1.15 µM (inactive),1.98,,2.63 µM (inactive),1.38 µM (inactive),,2.26 µM (inactive),4.35 µM (inactive),3.28 µM (inactive),,2.23 µM (inactive),2.11 µM (inactive),1.68 µM (inactive),1.14 µM (inactive),1.57 µM (inactive),
CC(C)N1CC2CN(Cc3ccccc3)CC(C1)C2=O,> 100 µM (inactive),> 100 µM (inactive),> 100 µM (inactive),> 100 µM (inactive),> 100 µM (inactive),> 100,,> 100 µM (inactive),> 100 µM (inactive),> 100 µM (inactive),89.1 µM (inactive),> 100 µM (inactive),> 100 µM (inactive),> 100 µM (inactive),> 100 µM (inactive),> 100 µM (inactive),> 100 µM (inactive),> 100 µM (inactive),> 100 µM (inactive),> 100 µM (inactive)
N#Cc1nc(NC(=O)c2ccccc2)sc1N,> 10 µM (inactive),,> 10 µM (inactive),> 10 µM (inactive),9.82 µM (inactive),> 10,> 4.03 µM (inactive),> 10 µM (inactive),> 10 µM (inactive),> 10 µM (inactive),4.54 µM (inactive),> 10 µM (inactive),> 10 µM (inactive),> 10 µM (inactive),> 10 µM (inactive),> 10 µM (inactive),> 10 µM (inactive),> 6.01 µM (inactive),> 10 µM (inactive),> 10 µM (inactive)
